{"source": "patent US20220362230A1", "about": "“USE OF GLUTARIMIDE DERIVATIVE FOR OVERCOMING STEROID RESISTANCE AND TREATING DISEASES ASSOCIATED WITH ABERRANT INTERFERON GAMMA SIGNALING” (\"CHEMIMMUNE THERAPEUTICS\" LIMITED LIABILITY COMPANY, priority 2018, published 2022)", "key": {"[1]": {"test_system": "acute oxazolone-induced ulcerative colitis", "assay": "Murine model of acute oxazolone-induced ulcerative colitis", "format": "in vivo, female balb/c mice", "conditions": "for The degree of large intestine wall damage, score: 72 hours after oxazolone, M ± m, n=10", "experimental": "The activity of Compound 1 in a model of acute oxazolone-induced ulcerative colitis was studied using the standard method [Immunity. 2002. P. 629-638]. In the study, female balb/c mice (6-8 weeks old) were used. Compound I was administered intragastrically, three times: 1 hour, 25 hours, and 49 hours after rectal administration of oxazolone. The body weight of the animals was measured before and 24, 48 and 72 hours after administration of oxazolone. The intestinal wall damage was evaluated under a microscope 72 hours after administration of oxazolone, according to the following score scale: 0=no damage, 1=hyperemia, no ulcers, 2=hyperemia, thickening of the intestinal wall, no ulcers, 3=one ulcer without thickening of the intestinal wall, 4=2 or more sites of ulceration or inflammation, 5=2 or more serious sites of ulceration and inflammation, or one site of ulceration/inflammation, extending >1 cm along the length of the colon, and 6-10=damage covers>2 cm long the length of the colon, the score is increased by 1 for each additional 1 cm of involvement. All data were analyzed by descriptive statistics: arithmetic mean (M) and standard error of the arithmetic mean (m). The Shapiro-Wilk test was used to check the normality of the distribution of the obtained experimental data. A normal distribution was analyzed with 1-way ANOVA (with Dunnett's post-analysis) to assess intergroup differences. A non-normal distribution was analyzed with […] (with Tukey's post-analysis) to compare several groups. Differences were determined at a confidence level of 5%."}, "[2]": {"test_system": "cough induced by inhalation of citric acid and IFN-γ", "assay": "Guinea pig model of cough induced by inhalation of citric acid and IFN-γ", "format": "in vivo, guinea pigs of the Aguti line", "conditions": "for The number of coughing movements within 8 minutes: 7 hours before citric acid inhalation, M ± m, n=5", "experimental": "The activity of Compound I in a model of cough in guinea pigs, which was induced by inhalation of citric acid and IFN-γ, was studied in accordance with the method [Am J Respir Crit Care Med. 2018. V. 198(7). P. 868-879].\nIn the study, guinea pigs of the Aguti line were used. All experimental animals were inhaled with a citric acid solution (0.3 M) prepared in physiological saline, for 8 minutes. The pathology control group and the groups receiving therapy were inhaled with IFN-γ (10 pg/kg) for 3 minutes at 7 hours before the inhalation of citrate. Compound 1 was administered intragastrically once, immediately after inhalation of IFN-γ, i.e. 7 hours before inhalation of the citric acid solution. The antitussive activity was evaluated by counting the number of coughing fits within 8 minutes from the start of inhalation of citric acid. All data were analyzed by descriptive statistics: arithmetic mean (M) and standard error of the arithmetic mean (m). The Shapiro-Wilk test was used to check the normality of the distribution of the obtained experimental data. A normal distribution was analyzed with 1-way ANOVA (with Dunnett's post-analysis) to assess intergroup differences. A non-normal distribution was analyzed with […] (with Tukey's post-analysis) to compare several groups. Differences were determined at a confidence level of 5%."}, "IFN-γ": {"test_system": "IFN-γ", "assay": "Phase II clinical trial, interferon-γ concentration in blood plasma", "format": "in vivo, human", "conditions": "with baseline therapy, compared with baseline therapy and placebo; regardless of IFN-γ level at inclusion", "experimental": "(§1) During the study therapy phase, patients received Compound 1 or placebo for 12 weeks against the background of baseline steroid therapy with low doses of inhaled corticosteroids. Compound 1 or placebo was administered orally once a day, 30 minutes before breakfast.\n(§2) To study the effect of the IFN-γ baseline level in patients with asthma, the results obtained in the clinical study were additionally analyzed; the patients' response to therapy was studied depending on their IFN-γ baseline level in the blood at the time of trial inclusion (determined by the Bio-Plex Pro Human Chemokine Panel Assay (Bio-Rad)).\n(§3) Moreover, in the clinical trial, Compound 1 was also analyzed for its effect on IFN-γ signal transduction. […] Thus, the suppression of steroid resistance induced by the use of Compound 1 could potentially be associated with an effect on the aberrant activity (signaling) of IFN-γ."}, "[3]": {"test_system": "patients with bronchial asthma", "assay": "Phase II clinical trial (PULM-XC8-02, NCT03450434), response to baseline inhaled corticosteroid therapy (FEV1)", "format": "in vivo, human", "experimental": "Thus, Compound is potentially useful for the therapy of diseases associated with the development of steroid resistance, in particular for the treatment of steroid-resistant asthma.\nIn the clinical trial, eligible patients were randomized 1:1:1:1 to one of four groups: • Compound 1 at a dose of 2 mg per day; • Compound 1 at a dose of 10 mg per day; • Compound 1 at a dose of 100 mg per day; and • Placebo.\nas §1\nThus, one of the effects of the use of Compound 1 is the overcoming of the resistance to corticosteroids, which is the backbone of the baseline therapy of patients enrolled in the clinical trial.\nas §2\nThe patients' response to baseline therapy in the groups of baseline steroid therapy and placebo decreased with an increase in the IFN-γ baseline level (FIG. 2). […] This fact indicates the overcoming of steroid resistance that can be caused, inter alia, by aberrant IFN-γ signaling."}, "[4]": {"test_system": "interferon-γ-dependent cytokine CXCL10 (interferon-gamma-induced protein IP10)", "assay": "Phase II clinical trial, CXCL10 concentration in blood plasma", "format": "in vivo, human", "conditions": "with baseline steroid therapy; patients with IFN-γ baseline level >100 pg/ml", "experimental": "as §1, §2, §3"}}}
{"smiles": "C[C@]12C=CC(=O)C=C1CC[C@@H]1[C@@H]2C(=O)C[C@@]2(C)[C@H]1CC[C@]2(O)C(=O)CO", "note": "[Prednisone, reference compound]", "values": [{"measurement": "Body weight", "setting": "[1]; 10 mg/kg, 24 hours after administration of oxazolone", "value": "18.5 ± 0.4", "unit": "g"}, {"measurement": "Body weight", "setting": "[1]; 10 mg/kg, 48 hours after administration of oxazolone", "value": "17.9 ± 0.4", "unit": "g"}, {"measurement": "Body weight", "setting": "[1]; 10 mg/kg, 72 hours after administration of oxazolone", "value": "17.3 ± 0.6", "unit": "g"}, {"measurement": "The degree of large intestine wall damage, score", "setting": "[1]; 10 mg/kg", "value": "1.80 ± 0.25", "unit": "score"}, {"measurement": "Body weight", "setting": "[1]; 10 mg/kg, before administration of oxazolone", "value": "19.0 ± 0.4", "unit": "g"}]}
{"smiles": "O=C1CCCC(=O)N1CCc1cnc[nH]1", "note": "[Compound 1, 1-(2-(1H-imidazol-4-yl)ethyl)piperidine-2,6-dione]", "values": [{"measurement": "The degree of large intestine wall damage, score", "setting": "[1]; 0.3 mg/kg intragastrically x3", "value": "1.70 ± 0.30", "unit": "score"}, {"measurement": "Body weight", "setting": "[1]; 0.3 mg/kg, 24 hours after administration of oxazolone", "value": "17.9 ± 0.2", "unit": "g"}, {"measurement": "Body weight", "setting": "[1]; 0.3 mg/kg, 48 hours after administration of oxazolone", "value": "17.5 ± 0.3", "unit": "g"}, {"measurement": "Body weight", "setting": "[1]; 0.3 mg/kg, 72 hours after administration of oxazolone", "value": "16.9 ± 0.2", "unit": "g"}, {"measurement": "Body weight", "setting": "[1]; 0.3 mg/kg, before administration of oxazolone", "value": "19.0 ± 0.6", "unit": "g"}, {"measurement": "The degree of large intestine wall damage, score", "setting": "[1]; 3 mg/kg intragastrically x3", "value": "1.89 ± 0.31", "unit": "score"}, {"measurement": "Body weight", "setting": "[1]; 3 mg/kg, 24 hours after administration of oxazolone", "value": "17.9 ± 0.3", "unit": "g"}, {"measurement": "Body weight", "setting": "[1]; 3 mg/kg, 48 hours after administration of oxazolone", "value": "17.6 ± 0.2", "unit": "g"}, {"measurement": "Body weight", "setting": "[1]; 3 mg/kg, 72 hours after administration of oxazolone", "value": "16.7 ± 0.2", "unit": "g"}, {"measurement": "Body weight", "setting": "[1]; 3 mg/kg, before administration of oxazolone", "value": "18.7 ± 0.4", "unit": "g"}, {"measurement": "The degree of large intestine wall damage, score", "setting": "[1]; 30 mg/kg intragastrically x3", "value": "1.40 ± 0.16& score"}, {"measurement": "Body weight", "setting": "[1]; 30 mg/kg, 24 hours after administration of oxazolone", "value": "18.8 ± 0.2& g"}, {"measurement": "Body weight", "setting": "[1]; 30 mg/kg, 48 hours after administration of oxazolone", "value": "18.4 ± 0.4& g"}, {"measurement": "Body weight", "setting": "[1]; 30 mg/kg, 72 hours after administration of oxazolone", "value": "18.4 ± 0.5& g"}, {"measurement": "Body weight", "setting": "[1]; 30 mg/kg, before administration of oxazolone", "value": "19.8 ± 0.6", "unit": "g"}, {"measurement": "Effect on degree of damage of the colon wall", "setting": "[1]; administered intragastrically", "value": "reduced the degree of damage of the colon wall"}, {"measurement": "Effect on weight loss in animals", "setting": "[1]; administered intragastrically", "value": "prevented weight loss"}, {"measurement": "Intensity of action compared with reference steroid", "setting": "[1]; murine model of ulcerative colitis", "value": "not inferior to prednisolone by intensity of action"}, {"measurement": "The number of coughing movements within 8 minutes", "setting": "[2]; 1.4 mg/kg intragastrically once", "value": "19.2 ± 2.7&"}, {"measurement": "The number of coughing movements within 8 minutes", "setting": "[2]; 14 mg/kg intragastrically once", "value": "18.4 ± 2.9&"}, {"measurement": "Effect on number of coughing movements", "setting": "[2]; administered intragastrically", "value": "reduced the number of coughing movements"}, {"measurement": "Change in concentration of IFN-γ in blood plasma, week 12 vs week 0", "setting": "IFN-γ", "value": "negative dynamics of IFN-γ concentrations"}, {"measurement": "Response to therapy (change in FEV1, week 12 vs. week 0)", "setting": "[3]; 100 mg per day with baseline steroid therapy vs placebo, especially patients with IFN-γ level more than 100 pg/ml", "value": "significantly greater and clinically significant response to therapy"}, {"measurement": "Clinical effect", "setting": "[3]; 100 mg per day, 12 weeks, with baseline low-dose inhaled corticosteroids", "value": "clinically significant effect"}, {"measurement": "Number of patients with an increase in FEV1 by 100 ml or more (response to baseline steroid therapy)", "setting": "[3]; baseline steroid therapy and Compound 1, 12 weeks, oral once a day, placebo group 13 out of 29", "value": "20 patients out of 29"}, {"measurement": "Change in concentration of CXCL10 (IP10) in blood plasma, week 12 vs week 0", "setting": "[4]", "value": "suppressed the concentration of interferon-γ-dependent cytokine CXCL10"}]}
